Assay results as given in patent US12342818B2, “Formulations and methods for controlling invasive amphibians” (priority 2019, dated 2025).

Test system: Adult cane toads (Rhinella marina)
Test: Cane toad spray trial (formulation sprayed on ventral and/or dorsal surface)
Format: in vivo
Conditions: for Mortality Rate / Avg. Time Until Breathing & Heart Beat Not Detected / Avg. Time to Unresponsive: 48 hrs trial
Procedure: Adult cane toads (Rhinella marina) (>[…] SUL=snout-urostyle length) were collected around Townsville one or two nights prior to the trials. The toads were kept in two Nally bins with all males in one, and all females in the other for ease of sorting. […]
• 1. The compound and carrier controls were prepared on day of testing. • 2. Toads were weighed, measured and placed in individual buckets and left for 10 minutes to settle. • 3. 1.5 ml of the formulation or carrier or water was delivered to the ventral and/or dorsal surface of each toad via a spray bottle (2×1 ml sprays and accounting for approximately 0.5 ml loss during spraying). • 4. Measurements of toad behaviour and heart rate were recorded at T=5, 10, 15, 20, 25, 30, 45, 60, 75, 90, 105, 120 minutes, plus 4-6 hours, 10-12 hours, 16-18 hours and 24 hours after spraying. If toads were still unconscious but not dead (if there was a heartbeat) within 24 hours, they were checked again at 48 hours. The following measurements were taken at each time interval: • Consciousness: Righting reflex was tested by flipping toads onto their backs and their ability to right themselves was recorded as “fast,” “slow,” or “unresponsive”. Observations were made of the palpebral reflex and involuntary muscular movement: Palpebral reflex was tested by gently tapping the palpebral area with the finger and observing eyelid movement. Involuntary muscular movement was tested via the withdrawal reflex, by grasping each limb distally and extending it. • Breathing/heart rate (did the toad appear to be breathing or was there a detectable heart beat); • Side effects (any other noticeable effects of the formulation such as twitching, distress or agitation, poison gland discharge, muscle rigidness, gasping, or ventral redness).
Even when no vital signs are detected externally during the experimental process, previous studies have shown that toads may appear dead and still have a heartbeat. At the completion of the trials, all animals were anaesthetised with a lethal dose MS222 (tricaine mesylate) then dissected to determine if the heart was still beating and to look for any signs of internal necrosis.

[1] = carrier ethanol, 84.2 g/L, 2 sprays ventral + dorsal, 6 toads
[2] = carrier ethanol, 168.36 g/L, 2 sprays ventral + dorsal, 6 toads
[3] = carrier isopropanol, 84.2 g/L, 2 sprays ventral + dorsal, 6 toads
[4] = carrier isopropanol, 126.3 g/L, 2 sprays dorsal, 6 toads
[5] = carrier isopropanol, 126.3 g/L, 2 sprays dorsal, 24 toads (repeat trial)
[6] = carrier isopropanol, 140 g/L, 2 sprays dorsal, 22 toads
[7] = carrier isopropanol, 168.36 g/L, 2 sprays ventral + dorsal, 6 toads

OCCOc1ccccc1 [2-Phenoxyethanol]
Mortality Rate (carrier ethanol, 21.05 g/L, 2 sprays ventral + dorsal, 6 toads): 0%
Avg. Time Until Breathing & Heart Beat Not Detected [1]: 405 min
Avg. Time to Unresponsive [1]: 15 min
Mortality Rate [1]: 100%
Avg. Time Until Breathing & Heart Beat Not Detected [2]: 20 min
Avg. Time to Unresponsive [2]: 13.33 min
Mortality Rate [2]: 100%
Avg. Time Until Breathing & Heart Beat Not Detected [3]: 40.83 min
Avg. Time to Unresponsive [3]: 16.67 min
Mortality Rate [3]: 100%
Avg. Time Until Breathing & Heart Beat Not Detected [4]: 23 min
Avg. Time to Unresponsive [4]: 18.3 min
Mortality Rate [4]: 100%
Avg. Time Until Breathing & Heart Beat Not Detected [5]: 24.25 min
Avg. Time to Unresponsive [5]: 18 min
Mortality Rate [5]: 95.8%
Avg. Time Until Breathing & Heart Beat Not Detected [6]: 22.05 min
Avg. Time to Unresponsive [6]: 17.95 min
Mortality Rate [6]: 100%
Avg. Time Until Breathing & Heart Beat Not Detected [7]: 14.17 min
Avg. Time to Unresponsive [7]: 11.67 min
Mortality Rate [7]: 100%
Avg. Time to Unresponsive (carrier propylene glycol, 168.36 g/L, 2 sprays ventral + dorsal, 6 toads): 15.83 min
Avg. Time to Unresponsive (carrier water, 168.36 g/L, 2 sprays ventral + dorsal, 6 toads): 14.166 min
effectiveness among potential toxicants tested (in different carriers) (compared with benzocaine, sodium nitrite, tricaine mesylate, sodium monesnsin): only real effective candidate
effectiveness as toad control (concentration greater than 40 g/L in a carrier of either ethanol or isopropanol): effective control
effectiveness as toad control (formulations with water as a carrier): not effective
